From patent publication US8883827B2, “Azole derivatives as WTN pathway inhibitors” (Oslo University Hospital HF, priority 2009, dated 2014)

Key:
Type in all cases: cell-based
canonical Wnt signaling [1] = assay: ST-Luc (SuperTOPFlash) Luciferase assay in HEK293 cells, 30% Wnt3a-CM; conditions: Homo sapiens, HEK293; 10 μM compound, 30% Wnt3a-CM, 24 h; relative to DMSO control
Procedure: Inhibition of Wnt signaling by compound No. 1 was quantified in vitro using a Luciferase assay in HEK293 cells transiently transfected with SuperTOPFlash plasmid (ST-Luc) (Veeman M T et al., Curr. Biol. 13: 680-685, 2003) at concentrations from 0.1-10 μM. HEK293 cells were purchased from ATCC (American Type Culture Collection) and maintained according to suppliers recommendations.
Transfection was performed using 80000 HEK293 cells seeded in 48-well plates coated with poly-L lysine. After 24 hours, 0.25 μg total plasmid DNA (0.23 μg SuperTOPFlash+0.02 μg pRL-TK (Renilla)—Promega) and 0.75 μl FuGENE6 (Roche) was combined in a total volume in 25 μl Opti-MEM® (Invitrogen) as described by the manufacturer (Roche). The transfection mixture was added to the plated cells and media were changed after 24 hours.
The Luciferase assay was performed by incubating transfected cells for 24 hours with various concentrations of compound No. 1 in 30% Wnt3a-CM (Wnt3a containing conditioned medium from L Wnt3a cells was harvested as described by ATCC). All treated reporter cells were finally lysed and the firefly luciferase and Renilla activities were measured on a 20/20n Luminometer (Turner BioSystems) as described in the Dual-Glo™ Luciferase Assay System Technical Manual (Promega).
HEK293 cells were transfected, grown and assayed as described in Example 22. 24 hours after seeding, the cells were incubated for an additional 24 hours with 10 μM concentrations of compounds in 30% Wnt3a-CM.
The percent activities shown in Table 3 are calculated relative to DMSO as a control. Some values shown are averages of multiple measurements. Compound XAV939 (Novartis; Huang et al., Nature (2009), 461, pp. 614-20) which is used as a positive control, has an activity of 7%.

canonical Wnt signaling [2] = assay: IC50 in STF/REN HEK293 cells, 50% Wnt3a-CM; conditions: Homo sapiens; STF/REN HEK293, 50% Wnt3a-CM, 24 h
Procedure: IC50 values were calculated using STF/REN HEK293 cells prepared essentially according to Example 22. Briefly, HEK293 cells (80,000 cells per well) were seeded in 48-well plates coated with poly-L lysine. 24 hours after seeding, the cells were incubated for an additional 24 hours with various compound concentrations in 50% Wnt3a-CM. After compound exposure, the cells were lysed and the firefly luciferase and Renilla activities were measured on a 20/20n Luminometer (Turner BioSystems) as described in the Dual-Glo™ Luciferase Assay System Technical Manual (Promega).
XLfit (idbs) was used to determine the IC50 and GI50 values in inhibition experiments. The data were fit to the following formulae:
IC50: Langmuir Binding Isotherm: fit=((A+(B*x))+(((C−B)*(1−exp((−1*D)*x)))/D)) res=(y−fit)

[3] = tested on: SW480 colon carcinoma cells; assay: MTS cell proliferation assay, Table 5; conditions: Homo sapiens; SW480, 10 μM, 72 h; relative to DMSO control; read-out: Cell proliferation (%) for test compounds
Procedure: For the experiment giving the results shown in Table 5, cells (3000 per well) were seeded on 96 well plates (eight replicates per treatment). After 24 hours, and daily thereafter, cell culture medium (including 10% FBS) was mixed with 10 μM compounds or with 0.1% DMSO vehicle and then added to the wells. Sixteen wells of seeded control cells, defining incubation time zero (t0=24 hour after cell seeding), were incubated with 20 μl substrate in 100 μl phenol free D-MEM (Invitrogen) for 2 hours, as described in the CellTiter 96® AQueous Non-Radioactive Cell Proliferation Assay protocol (Promega). The A490 was recorded. The treatment samples were likewise measured after 72 hours.
The quantity of reduced MTS product (as measured by the absorbance at 490 nm) is directly proportional to the number of living cells in the culture and thus allows a direct comparison of cell proliferation in each case. DMSO was used as a control. The following formula was used to determine single well relative A490 sample values: ((Sample A490−Average A490t0)*100)/(Average A490t720.1% DMSO control−Average A490t0)
The proliferation of SW480 cells (in percent) is the A492 value relative to that of the DMSO control.

`COc1ccc(-n2c(CCN(C)C)nnc2-c2ccncc2)cc1` [Compound 6] showed an activity at 10 µM (canonical Wnt signaling [1]) of 55.7%.
For `Cc1ccc(-n2c(SCc3nc(C(C)(C)C)no3)nnc2-c2ccncc2)cc1` [Compound 81], the activity at 10 µM (canonical Wnt signaling [1]) was 89%.
Work on `CCOc1ccc(-n2c(SCc3nc(-c4cccc(Cl)c4)no3)nnc2-c2ccncc2)cc1` [Compound 25] yielded an IC50 (canonical Wnt signaling [2]) of 10 µM and an activity at 10 µM (canonical Wnt signaling [1]) of 59%.
Work on `COc1ccc(-n2c(SC)nnc2-c2ccncc2)cc1` [Compound 14] yielded an activity at 10 µM (canonical Wnt signaling [1]) of 63.5%.
`Cc1ccc(-c2nnc(CSc3nnc(-c4cc(O)cc(O)c4)n3-c3ccccc3Cl)o2)cc1` [compound 106, (5-((5-p-tolyl-1,3,4-oxadiazol-2-yl)methylthio)-4-(2-chlorophenyl)-4H-1,2,4-triazol-3-yl)benzene-1,3-diol] was tested, and the activity at 10 µM [3] was 63% and the activity at 10 µM (canonical Wnt signaling [1]) was 14.5%.
`COc1ccc(-n2c(O)nnc2-c2ccncc2)cc1` [Compound 16] gave an activity at 10 µM (canonical Wnt signaling [1]) of 71.8%.
In the case of `Cc1ccc(-c2nnc(CSc3nnc(-c4ccncc4)n3-c3ccccc3Cl)o2)s1` [compound 74], the IC50 (canonical Wnt signaling [2]) is reported as 0.371 µM and the activity at 10 µM (canonical Wnt signaling [1]) is reported as 13%.
For `COc1ccc(-n2c(SCc3nc(-c4cccs4)no3)nnc2-c2ccncc2)cc1` [Compound 13], the IC50 (canonical Wnt signaling [2]) was 7.1 µM and the activity at 10 µM (canonical Wnt signaling [1]) was 34.5%.
Molecule `Cc1ccccc1-n1c(SCC(=O)Nc2ncccn2)nnc1-c1ccncc1` [Compound 82] has an activity at 10 µM (canonical Wnt signaling [1]) of 83%.
`Cc1ccc(-c2nnc(S[C@H](C)c3nnc(-c4ccncc4)n3-c3ccccc3Cl)o2)cc1` [100b] showed an activity at 10 µM [3] of 66% and an activity at 10 µM (canonical Wnt signaling [1]) of 5%.
For `Cc1ccccc1-c1nnc(CSc2nnc(-c3ccncc3)n2-c2ccccc2Cl)o1` [compound 71], the activity at 10 µM (canonical Wnt signaling [1]) was 31%.
Work on `COc1ccc(-n2c(SCc3cn4ccccc4n3)nnc2-c2ccncc2)cc1` [Compound 27] yielded an activity at 10 µM (canonical Wnt signaling [1]) of 80.3%.
In the case of `N#Cc1ccc(-c2nnc(CSc3nnc(-c4ccncc4)n3-c3ccccc3Cl)o2)cc1` [Compound 69], the activity at 10 µM (canonical Wnt signaling [1]) is reported as 26%.
Molecule `COc1ccc(-n2c(SCCc3nc(-c4ccc(C)cc4)no3)nnc2-c2ccncc2)cc1` [Compound 2] has an activity at 10 µM (canonical Wnt signaling [1]) of 31.8%.
Work on `COc1cc(OC)cc(-c2nnc(SCc3nnc(-c4ccc(C)cc4)o3)n2-c2ccccc2Cl)c1` [Compound 107] yielded an activity at 10 µM [3] of 47% and an activity at 10 µM (canonical Wnt signaling [1]) of 4.5%.
Work on `Cc1ccccc1-n1c(SCc2nc(-c3cccc(O)c3)no2)nnc1-c1ccncc1` [Compound 47] yielded an IC50 (canonical Wnt signaling [2]) of 0.95 µM and an activity at 10 µM (canonical Wnt signaling [1]) of 8.7%.
`Cc1ccc(-c2nnc(CSc3nnc(-c4ccc(F)cc4)n3-c3ccccc3Cl)o2)cc1` [compound 115, 3-((5-p-tolyl-1,3,4-oxadiazol-2-yl)methylthio)-4-(2-chlorophenyl)-5-(4-fluorophenyl)-4H-1,2,4-triazole] was tested, and the activity at 10 µM [3] was 60% and the activity at 10 µM (canonical Wnt signaling [1]) was 5%.
Molecule `Cc1ccc(-c2noc(CSc3nnc(-c4ccncc4)n3-c3ccc(Cl)cc3)n2)cc1` [Compound 3] has an activity at 10 µM (canonical Wnt signaling [1]) of 32.5%.
Molecule `Fc1ccc(-n2c(SCc3nc(-c4cccc(Cl)c4)no3)nnc2-c2ccncc2)cc1` [Compound 21] has an IC50 (canonical Wnt signaling [2]) of 10 µM and an activity at 10 µM (canonical Wnt signaling [1]) of 90.1%.
With `COc1ccc(-n2c(SCCNC(C)=O)nnc2-c2ccncc2)cc1` [Compound 33] the activity at 10 µM (canonical Wnt signaling [1]) was 79.6%.
`Cc1ccccc1-n1c(SCc2nc(-c3ccccc3Cl)no2)nnc1-c1ccncc1` [Compound 56] gave an activity at 10 µM (canonical Wnt signaling [1]) of 55.1%.
For `CCOc1ccc(-c2nnc(SCc3nnc(-c4ccc(C)cc4)o3)n2-c2ccccc2Cl)cc1` [compound 109, 3-((5-p-tolyl-1,3,4-oxadiazol-2-yl)methylthio)-4-(2-chlorophenyl)-5-(4-ethoxyphenyl)-4H-1,2,4-triazole], the activity at 10 µM [3] was 33% and the activity at 10 µM (canonical Wnt signaling [1]) was 0.6%.
`Cc1cc2nc(CSc3nnc(-c4ccncc4)n3-c3ccccc3Cl)cc(=O)n2cc1C` [compound 103] gave an activity at 10 µM [3] of 67% and an activity at 10 µM (canonical Wnt signaling [1]) of 20%.
`Cc1ccc(-c2nnc(CSc3nnc(-c4ccc(Cl)cc4)n3-c3ccccc3Cl)o2)cc1` [compound 111, 3-((5-p-tolyl-1,3,4-oxadiazol-2-yl)methylthio)-4-(2-chlorophenyl)-5-(4-chlorophenyl)-4H-1,2,4-triazole] showed an activity at 10 µM [3] of 44% and an activity at 10 µM (canonical Wnt signaling [1]) of 0.7%.
For `Fc1ccc(-n2c(SCc3nc(-c4ccc(Cl)cc4)no3)nnc2-c2ccncc2)cc1` [Compound 12], the IC50 (canonical Wnt signaling [2]) was 10 µM and the activity at 10 µM (canonical Wnt signaling [1]) was 38.8%.
`Cc1ccc(-c2nc(CSc3nnc(-c4ccncc4)n3-c3ccccc3Cl)sc2C)cc1` [Compound 62] was tested, and the activity at 10 µM (canonical Wnt signaling [1]) was 58%.
In the case of `Cc1ccccc1-n1c(SCC(=O)Nc2ccc3c(c2)CCC3)nnc1-c1ccncc1` [Compound 89], the activity at 10 µM (canonical Wnt signaling [1]) is reported as 94%.
`Cc1ccc(-c2nnc(CSc3nnc(-c4ccncc4)n3-c3ccccc3Cl)o2)cc1Br` [compound 73] showed an activity at 10 µM (canonical Wnt signaling [1]) of 29%.
In the case of `Cc1ccc(NC(=O)CSc2nnc(-c3ccncc3)n2-c2ccc(C)cc2)cc1` [Compound 92], the activity at 10 µM (canonical Wnt signaling [1]) is reported as 84%.
For `COc1ccc(-n2c(S)nnc2-c2ccncc2)cc1` [Compound 15], the activity at 10 µM (canonical Wnt signaling [1]) was 69.1%.
Work on `Cc1ccc(-c2nnc(CSc3nnc(-c4cnc(N)nc4)n3-c3ccccc3Cl)o2)cc1` [compound 132, 5-(5-((5-p-tolyl-1,3,4-oxadiazol-2-yl)methylthio)-4-(2-chlorophenyl)-4H-1,2,4-triazol-3-yl)pyrimidin-2-amine] yielded an activity at 10 µM (canonical Wnt signaling [1]) of 32%.
With `NCCCOCCCOc1cccc(-c2noc(CSc3nnc(-c4ccncc4)n3-c3ccccc3Cl)n2)c1` [compound 67] the IC50 (canonical Wnt signaling [2]) was < 0.1 µM and the activity at 10 µM (canonical Wnt signaling [1]) was 12.7%.
Work on `Cc1ccc2nc(CSc3nnc(-c4ccncc4)n3-c3ccccc3C)cc(=O)n2c1` [Compound 85] yielded an activity at 10 µM (canonical Wnt signaling [1]) of 43%.
`CC1CCCCC1n1c(SCc2nnc(-c3ccccc3)o2)nnc1-c1cccnc1` (centres unmarked) [Compound 87] was tested, and the activity at 10 µM (canonical Wnt signaling [1]) was 52%.
For `O=C(CSc1nnc(-c2ccncc2)n1-c1ccccc1)Nc1ccccn1` [Compound 97], the activity at 10 µM (canonical Wnt signaling [1]) was 80%.
`COc1ccc(-n2c(OCc3nc(-c4ccc(C)cc4)no3)nnc2-c2ccncc2)cc1` [Compound 4] showed an activity at 10 µM (canonical Wnt signaling [1]) of 98.4%.
In the case of `Cc1ccc(-c2noc(CS(=O)(=O)c3nnc(-c4ccncc4)n3-c3ccccc3Cl)n2)cc1` [compound 66], the IC50 (canonical Wnt signaling [2]) is reported as 1.75 µM and the activity at 10 µM (canonical Wnt signaling [1]) is reported as 25.6%.
Molecule `CC(Sc1nnc(-c2ccccc2)n1-c1ccc(F)cc1F)c1nc(-c2ccncc2)no1` (centres unmarked) [Compound 80] has an activity at 10 µM (canonical Wnt signaling [1]) of 32%.
With `Cc1ccccc1-n1c(SCc2nc(-c3cccc(C(F)(F)F)c3)no2)ccc1-c1ccncc1` [Compound 57] the activity at 10 µM (canonical Wnt signaling [1]) was 51.8%.
In the case of `Cc1ccc(-n2c(SCC(=O)NC3CCCC3)nnc2-c2ccncc2)cc1` [Compound 93], the activity at 10 µM (canonical Wnt signaling [1]) is reported as 91%.
In the case of `Cc1ccc(-c2noc(CSc3nnc(-c4cccc(O)c4)n3-c3ccccc3C)n2)cc1` [Compound 45], the activity at 10 µM (canonical Wnt signaling [1]) is reported as 78.1%.
`Cc1ccc(-c2noc(CSc3nnc(-c4cccnc4)n3-c3ccccc3C)n2)cc1` [Compound 77] was tested, and the activity at 10 µM (canonical Wnt signaling [1]) was 51%.
Molecule `Cc1ccc(-c2nnc(CCc3nnc(-c4ccncc4)n3-c3ccccc3Cl)o2)cc1` [compound 101] has an activity at 10 µM [3] of 47% and an activity at 10 µM (canonical Wnt signaling [1]) of 23%.
In the case of `Cc1ccc(-n2c(SC(C)c3nc(-c4ccncc4)no3)nnc2-c2ccncc2)cc1C` (centres unmarked) [Compound 79], the activity at 10 µM [3] is reported as 70% and the activity at 10 µM (canonical Wnt signaling [1]) is reported as 16%.
In the case of `Cc1ccccc1-n1c(SCC(=O)NCc2cccs2)nnc1-c1ccncc1` [Compound 88], the activity at 10 µM (canonical Wnt signaling [1]) is reported as 99%.
`Cc1ccc(-c2nnc(Sc3nnc(-c4ccncc4)n3-c3ccccc3Cl)s2)cc1` [Compound 63] showed an activity at 10 µM (canonical Wnt signaling [1]) of 99%.
With `CCOc1ccc(-n2c(SCc3nnc(C)o3)nnc2-c2ccncc2)cc1` [Compound 30] the activity at 10 µM (canonical Wnt signaling [1]) was 78%.
Work on `Sc1nnc(-c2ccncc2)n1-c1ccc(Cl)cc1` [Compound 17] yielded an activity at 10 µM (canonical Wnt signaling [1]) of 76.8%.
